The values below come from US20230145868A1, “UREA INHIBITORS OF MICRO-RNA” (Board of Regents, The University of Texas System, priority 2020, published 2023).

Read-outs that look alike come from different tables or passages of the source.

One experiment has as its system pre-miR-10b. Kind of experiment: RT-qPCR of precursor miR-10b. In kind it is cell-based, human. As to conditions: normalized to U6, vs DMSO. The method, then:
Potential small molecule miRNA inhibitors were tested in MCF7 cells, a metastatic cell line (MM231) and an HCC cell line (HepG2) through RT-qPCR. Cells were seeded in 12-well plates 24 h before treatments at a confluence of 50-60%. They were treated at a concentration of 10 μM linifanib (positive control) or DMSO (negative control), and RNA was collected after 24 and 48 h. MicroRNA expression was tested using TaqMan microRNA assay (Applied Biosystems). The cDNA was synthesized using TaqMan Reverse Transcription Reagents kit (Applied Biosystems) and employed for quantitative RT-qPCR analysis together with TaqMan probes and SsoFastSupermix (Bio-rad). Primers and probes were purchased for hsa-miR-10b, hsa-pri-miR-10b, U6, and U48 snRNA that was used as an internal control.
To detect the levels of the precursor sequences, cDNA was synthesized using the SuperScript III cDNA kit (Invitrogen). Diluted cDNA was used for RT-qPCR analysis using iQ SYBR Green Supermix (Bio-Rad) with primers designed by in-house. Experiments were performed in triplicate; treated samples were compared to the DMSO-treated controls and normalized to the internal control. Relative expression levels were calculated using the 2-ΔCt method.

Experiment [1] deals with AGS cell line. Nature of the experiment: Migration assay, AGS. As to conditions: vs DMSO. In kind it is cell-based, human.
A further experiment deals with miR-10b. Nature of the experiment: Luciferase reporter assay of miR-10b inhibition, MCF7 cells. It is filed as cell-based. As to conditions: Homo sapiens, MCF7, 48 h. An excerpt:
To identify miR-10b inhibitors, a luciferase reporter system was designed with complementary oligonucleotides for miR-10b.This luciferase reporter would repress Renilla luciferase signal in the presence of a functional mature miR-10b. However, in the presence of a small molecule that can inhibit mature miR-10b expression or affect its downstream function, the luciferase expression is restored again.
The PsiCHECK™-2 luciferase reporter vector was acquired from Promega™, Complementary oligonucleotides for hsa-miR-10b were designed based on the mature miRNA sequence and obtained from Thermo Fisher Scientific. In the design of the microRNA target sequence, several base pairs were added to have two different restriction sites recognizable by the enzyme SgfI at one side, and PmeI on the other (present in the vector as well). In addition, the insert was designed with a restriction site for SacI enzyme in order to have an additional site to digest the vector when monitoring colonies for the presence/absence of the insert. The designed oligonucleotides were annealed as follows: Complementary strands were mixed at a 1:1 molar ratio in a micro centrifuge tube. The mixture was diluted to a final concentration of 1 pmol/μl with a buffer solution of 10 mM Tris, 1 mM EDTA, and 50 mM NaCl (pH 8.0). Mixes were incubated at 95° C. for 5 min, and then the heat was reduced gradually for 70 min, until reaching 4° C. The annealed oligonucleotides were digested along with the PsiCHECK™2 vector with SgfI and PmeI and ligated at the 3′-UTR (downstream) of the Renilla luciferase reporter gene in the PsiCHECK™-2vector. Insert sequences were further confirmed in two ways: enzymatic digestion and sequencing.
MCF7 cells were seeded 24 h prior to transfection in 96 well plates (2.0×10^4 cells/well). For testing the sensitivity of the assay, antagomiRs and pre-miRs against miR-10b were used at a final concentration of 100 nM. For testing small molecule miRNA inhibitors, the compounds of interest were added to a final concentration of 10 μM. The assay was done in MCF7 or MDA-MB-231 cells at approximately 60% confluence using Lipofectamine in Opti-Mem media with the final vector concentration of 250 ng/mL. All transfections were performed in triplicate for statistical analysis. The cells were incubated at 37° C. for 6 h, followed by replacement of the transfected media with fresh media. After 48 h incubation, the media was removed, and cells were lysed and assayed with a Dual Luciferase Assay Kit (Promega) using a Vi-Tech luminometer. The ratio of Renilla to firefly luciferase expression was calculated for each of the triplicates.
Background: In a reporter assay the amount or activity of a reporter protein is the signal.

In another experiment the test system is HOXD10. Nature of the experiment: Western blot, HOXD10 expression. In kind it is cell-based, human. As to conditions: vs DMSO. The protocol:
Proteins are collected from cultured cells and lysed with 10× Lysis Buffer (Cell Signaling) freshly supplemented with a complete protease inhibitor cocktail and phosphatase inhibitors (Sigma). Bradford assay is used to measure protein concentration. Proteins are separated by polyacrylamide gel (Bio-rad) electrophoresis and were transferred to a 0.2 μm nitrocellulose membrane (Bio-rad). Quantification of protein expression was conducted using the image analysis software ImageJ.
On the technique in general: In western blotting, separated proteins are transferred to a membrane and probed.

For experiment [2], the system named is AGS cell line. Nature of the experiment: Cell proliferation assay (WST-8 or MTS), AGS. It is filed as cell-based, human. The method, then: IC50 dose-response curves were determined using the cell proliferation assay system. Briefly, 5,000 or 10,000 cells of each cell line were plated in 96-well microculture plates in replicates of either 4 or 6. When cells became adherent, either 5 or 10 sequentially decreasing doses of the small molecule miRNA inhibitor were diluted into new media and added to individual wells. After either 24 or 48 hours, of a tetrazolium salt such as MTS, MTT, or WST-8 was added to each well at the same time of day as treatment and incubated for either 2 or 3 h at 37° C. The OD, measuring at the appropriate wavelength for the dye, was read at on a microplate spectrophotometer.
Cell proliferation is determined using a colorimetric assay. A tetrazolium salt such as MTS, MTT, or WST-8 is reduced by dehydrogenase activities in cells to give a formazan dye, which is soluble in the tissue culture media. The amount of the formazan dye (generated by the activities of dehydrogenases in cells, and directly proportional to the number of living cells) is measured after 3 h of incubation. The OD is read at 450 nm on a microplate spectrophotometer and growth values (%) are calculated as (OD treated cells/OD untreated cells)×100. The experiments are performed in triplicate. Cell viability is also tested by bromodeoxyuridine (BrdU) test according to the instructions. 2000 MM231, MCF7 and HepG2 cells are seeded to 96-well plate. After 24 h, 10 μM DMSO or linifanib is added to each well. The OD is read at 450/550 nm on a microplate spectrophotometer, after one to seven days of the treatment. The experiments are performed in triplicate.
For orientation: Tetrazolium assays rely on reduction of a dye to a coloured formazan, in cell work by metabolically active cells.

The mark [3] stands for this setting: Table 6, MCF7, second biological replicant, 10 μM compound, mean of triplicate, read-out: n-fold increase in luciferase expression, Mean.
The mark [4] stands for this setting: Table 6, MCF7, second biological replicant, 10 μM compound, replicate #1, read-out: n-fold increase in luciferase expression, #1.
The mark [5] stands for this setting: Table 6, MCF7, second biological replicant, 10 μM compound, replicate #2, read-out: n-fold increase in luciferase expression, #2.
Where [6] appears, read: Table 6, MCF7, second biological replicant, 10 μM compound, replicate #3, read-out: n-fold increase in luciferase expression, #3.

Turning to `Cc1ccc(F)c(NC(=O)Nc2ccc(-c3cncnc3)cc2)c1` [Example 2, 1-(2-fluoro-5-methylphenyl)-3-(4-(pyrimidin-5-yl)phenyl)urea], the “expression of pre-miR-10b” value in the experiment with pre-miR-10b (AGS gastric cell line) and with pre-miR-10b (AsPC1 pancreatic cell line) was “increased expression of pre-miR-10b” each time. Besides, in the experiment on AGS cell line [1], the migration entry is listed as “decreased migration”. Besides, the fold induction at 10 µM with miR-10b (Table 3, MCF7, 10 μM compound, vs negative control (DMSO), mean of triplicate, read-out: n-fold increase in luciferase expression, Mean) came to 2.19; with miR-10b (Table 3, MCF7, 10 μM compound, vs negative control (DMSO), replicate #1, read-out: n-fold increase in luciferase expression, #1) it was 2.75; in the experiment with miR-10b (Table 3, MCF7, 10 μM compound, vs negative control (DMSO), replicate #2, read-out: n-fold increase in luciferase expression, #2) it was 1.78; in the experiment with miR-10b (Table 3, MCF7, 10 μM compound, vs negative control (DMSO), replicate #3, read-out: n-fold increase in luciferase expression, #3), 2.05; in the experiment with miR-10b (setting [3]), 2.44; in the experiment with miR-10b (setting [4]) it was 2.51. The fold induction at 10 µM in the experiment on miR-10b (setting [5]) turned out to be 2.84; in the experiment on miR-10b (setting [6]), 1.96. The “HOXD10 expression (Western blot)” value in the experiment with HOXD10 (AGS cell line) is “upregulated”. In addition, in the experiment on AGS cell line [2] (10 μM, 5 μM and 2 μM, vs DMSO), the proliferation entry is “reduced proliferation”.

For `Cc1ccc(F)c(NC(=O)Nc2ccc(-c3cccc4cn[nH]c34)cc2)c1` [Example 4, 1-(4-(1H-indazol-7-yl)phenyl)-3-(2-fluoro-5-methylphenyl)urea], the “expression of pre-miR-10b” value with pre-miR-10b (AGS gastric cell line) and with pre-miR-10b (AsPC1 pancreatic cell line) was “increasing precursor miRNA transcript” throughout. Also, the migration entry in the experiment with AGS cell line [1] is given as “decreased migration”. In addition, the fold induction at 10 µM came out at 2.71 in the experiment with miR-10b (Table 4, MCF7, 10 μM compound, vs negative control (DMSO), mean of triplicate, read-out: n-fold increase in luciferase expression, Mean); 1.95 with miR-10b (Table 4, MCF7, 10 μM compound, vs negative control (DMSO), replicate #1, read-out: n-fold increase in luciferase expression, #1); 3.8 in the experiment with miR-10b (Table 4, MCF7, 10 μM compound, vs negative control (DMSO), replicate #2, read-out: n-fold increase in luciferase expression, #2); 2.39 in the experiment with miR-10b (Table 4, MCF7, 10 μM compound, vs negative control (DMSO), replicate #3, read-out: n-fold increase in luciferase expression, #3); 2.54 with miR-10b (setting [3]); 4.28 in the experiment with miR-10b (setting [4]). Moreover, the fold induction at 10 µM came to 2.09 with miR-10b (setting [5]) and 1.24 in the experiment with miR-10b (setting [6]). Further, the “HOXD10 expression (Western blot)” value in the experiment on HOXD10 (AGS cell line) and in the experiment with HOXD10 (AsPC1 cell line) was “upregulated” in each case. The “cell viability (proliferation ability)” value with AGS cell line [2] (10 μM, vs DMSO) is on record as “statistically significant effect”. Further, in the experiment on AGS cell line [2] (5 and 10 μM, beginning at 48 h of treatment), the “proliferation (MTS), every 24 h over 96 h” value is on record as “significant difference in proliferation”.
